Key:
IL-1β = test: In vitro inhibition of IL-1β in human primary macrophages challenged with LPS (ELISA); type: cell-based; settings: Primary macrophage, 2 hours compound pre-treatment, 100 ng/mL LPS, 16 hours, read-out: IC50 (IL-Iβ inhibition)
Procedure: Example 12—In Vitro Inhibition of IL-1β in Human Primary Macrophages Challenged with LPS
5 mL of RPMI media without serum (1:1) was added to a sample of 5 mL of human whole blood in EDTA or sodium citrate and mixed well by inversion. 3 mL of Histopaque-1077 was added to a 15 mL conical centrifuge tube and brought to room temperature. Using a transfer pipette, 10 mL of the blood-RPMI mixture was carefully layered onto the Histopaque-1077 and was centrifuged at 400×g for exactly 30 minutes at room temperature.
After centrifugation, a pasteur pipette was used to aspirate the upper layer to within 0.5 cm of the opaque interface containing the mononuclear cells. The upper layer was discarded. With a Pasteur pipette, the opaque interface was carefully transferred to a clean conical centrifuge tube. 5 mL RPMI was added to the tube and mixed by inversion, followed by centrifugation at 250×g for exactly 10 minutes. The supernatant was aspirated and discarded.
The leukocyte pellet was re-suspended with 5 mL RPMI and mixed gently with a Pasteur pipette, followed by centrifugation at 250×g for exactly 10 minutes. The pellet was washed 3× with PBS and re-suspended in RPMI medium.
2×10^5 PBMCs at a total volume of 200 μL/well were plated into a 96-well plate and incubated for 4 hrs at 37° C. in a CO2 incubator to allow the monocytes to settle, leaving the lymphocytes in suspension. Following incubation, 100 μL were aspirated out of each well to ensure removal of the lymphocyte population.
The monocytes were differentiated to macrophages by addition of 200 ng/mL of recombinant human GM-CSF (4 mg/mL stock) and incubated at 37° C./5% CO2 for 6 days. The medium was changed every two days by removing half the volume of medium in the well and re-supplementing with fresh RPMI complete medium and recombinant human GM-CSF.
Following differentiation, the cells were treated in duplicates with a compound according to the invention in a total volume of 50 μL, maintaining a final DMSO percentile of 0.5%. The plate was transferred to an incubator maintained at 37° C./5% CO2 for 2 hours. The cells were stimulated with 100 ng/mL of LPS (4×) (1 mg/mL stock) in a total volume of 50 μL.
The plate was transferred to an incubator maintained at 37° C./5% CO2 for 16 hours.
• 1. Each well from a pre-coated ELISA plate was aspirated and washed with wash buffer (0.05% Tween 20 in PBS; pH 7.2-7.4) by filling each well with wash buffer (300 μL). The process was repeated two times for a total of three washes. The liquid was removed completely at each step. After the last wash, any remaining wash buffer was removed. • 2. Plates were blocked by adding 300 μL of block buffer (1% BSA in PBS) to each well and incubated at room temperature for 1 hour. • 3. The aspiration/wash as in step 1 was repeated. • 4. 100 μL of sample or standard prepared in reagent diluent (0.1% BSA, 0.05% Tween 20 in PBS pH7.2-7.4) was added. The wells were covered with an adhesive strip and incubated for 2 hours at room temperature. • 5. The aspiration/wash as in step 1 was repeated. • 6. 100 μL of detection antibody, diluted in reagent diluent, was added to each well. The wells were covered with a new adhesive strip and incubated for 2 hours at room temperature. • 7. The aspiration/wash as in step 1 was repeated. • 8. 100 μL of the working dilution (1:200 from the stock) and streptavidin-HRP was added to each well. The plate was covered and incubated for 20 minutes at room temperature. • 9. 100 μL of substrate solution (1:1 mixture of H2O2 and tetramethylbenzidine) was added to each well and incubated for 20 minutes at room temperature. • 10.50 μL of stop solution (2N H2SO4) was added to each well. The plate was tapped gently to ensure thorough mixing. • 11. The optical density of each well was determined immediately using a microplate reader (Spectramax Plus) set to 450 nm. Cytokine Viability Assessment […]

[1] = tested on: human primary macrophages; test: Cell viability assessment (CellTiter-Glo) in the macrophage assay plates; type: cell-based; design: concentration or dose not given beside the values; settings: CellTiter-Glo luminescent assay
Procedure: 2×10^5 PBMCs at a total volume of 200 μL/well were plated into a 96-well plate and incubated for 4 hrs at 37° C. in a CO2 incubator to allow the monocytes to settle, leaving the lymphocytes in suspension. Following incubation, 100 μL were aspirated out of each well to ensure removal of the lymphocyte population. The monocytes were differentiated to macrophages by addition of 200 ng/mL of recombinant human GM-CSF (4 mg/mL stock) and incubated at 37° C./5% CO2 for 6 days. The medium was changed every two days by removing half the volume of medium in the well and re-supplementing with fresh RPMI complete medium and recombinant human GM-CSF. Following differentiation, the cells were treated in duplicates with a compound according to the invention in a total volume of 50 μL, maintaining a final DMSO percentile of 0.5%. The plate was transferred to an incubator maintained at 37° C./5% CO2 for 2 hours. The cells were stimulated with 100 ng/mL of LPS (4×) (1 mg/mL stock) in a total volume of 50 μL. The plate was transferred to an incubator maintained at 37° C./5% CO2 for 16 hours. 100 μl/well volume of CellTiter-Glo® luminescent reagent was added to the assay plates and incubated at room temperature for 30 mins on a plate shaker. Following incubation, the luminescent signal of each well was determined using a microplate reader (Perkin Elmer ENVISION 2104). Cytotoxicity of the test compounds was determined utilizing the following formula: % Cytotoxicity=100−(100*(Average Test Compound Counts−Average Negative Control Counts)/(Average Positive Control Counts−Average Negative Control Counts)) All of the “Counts” stated in this formula are derived from “luminescent signal” determined as described for the cytokine viability assessment.

Which IC50 (IL-1β) does the source give for `CCOc1ccc(Oc2cc(S(=O)(=O)N(C)C)cnc2N2CCC(Oc3ccc(Cl)cc3)CC2)cc1` [Compound 7] here?
The IC50 was 27 nM.

What about the Cell viability [1] of the same compound?
The Cell viability was 100%.
